The source made the active and inactive calls.
How the values were obtained:
[1] = MC4R antagonists, dose response, counter-screen for LGR2 antagonist project, cell-based, plate reader, cherry pick (AID 743444); assay type: functional;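 note: transfected HEK 293 cells stimulated with alpha-MSH peptide; potency of inhibitors of the alpha-MSH evoked signal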
[2] = biological target: Sphingosine 1-phosphate receptor 1 (Homo sapiens, UniProt P21453); assay type: functional;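 note: Tango beta-arrestin reporter U2OS cells stimulated with S1P near its EC80; inhibitor potency meaning antagonism of receptor activation by the natural agonist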
Sequence of Sphingosine 1-phosphate receptor 1 (P21453 whole entry): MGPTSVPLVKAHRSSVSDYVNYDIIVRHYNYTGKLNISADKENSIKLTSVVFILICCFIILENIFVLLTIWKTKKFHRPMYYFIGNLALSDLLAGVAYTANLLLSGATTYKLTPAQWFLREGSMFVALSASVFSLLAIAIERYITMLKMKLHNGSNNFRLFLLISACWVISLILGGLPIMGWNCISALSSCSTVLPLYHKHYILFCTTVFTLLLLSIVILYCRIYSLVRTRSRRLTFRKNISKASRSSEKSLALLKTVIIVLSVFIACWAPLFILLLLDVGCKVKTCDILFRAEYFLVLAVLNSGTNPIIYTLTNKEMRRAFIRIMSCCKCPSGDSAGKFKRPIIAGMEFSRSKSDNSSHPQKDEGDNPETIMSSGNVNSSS

[3] = biological target: T1, Kappa-type opioid receptor (Homo sapiens, UniProt P41145); assay type: functional
T1 sequence (P41145 whole entry): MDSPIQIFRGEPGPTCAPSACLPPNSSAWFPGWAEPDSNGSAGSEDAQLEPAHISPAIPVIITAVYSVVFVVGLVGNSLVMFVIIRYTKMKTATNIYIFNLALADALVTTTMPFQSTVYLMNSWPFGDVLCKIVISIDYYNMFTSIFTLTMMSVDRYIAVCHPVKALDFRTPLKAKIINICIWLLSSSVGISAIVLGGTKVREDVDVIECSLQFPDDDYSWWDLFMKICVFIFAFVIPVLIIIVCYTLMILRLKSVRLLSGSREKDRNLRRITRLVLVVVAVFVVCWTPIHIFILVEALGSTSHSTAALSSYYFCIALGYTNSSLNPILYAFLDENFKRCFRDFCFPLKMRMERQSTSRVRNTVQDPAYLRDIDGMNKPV

Beta-galactosidase [4] = biological target: T2, Beta-galactosidase (Escherichia coli, UniProt Q8VNN2); assay type: functional
T2 sequence (Q8VNN2 whole entry): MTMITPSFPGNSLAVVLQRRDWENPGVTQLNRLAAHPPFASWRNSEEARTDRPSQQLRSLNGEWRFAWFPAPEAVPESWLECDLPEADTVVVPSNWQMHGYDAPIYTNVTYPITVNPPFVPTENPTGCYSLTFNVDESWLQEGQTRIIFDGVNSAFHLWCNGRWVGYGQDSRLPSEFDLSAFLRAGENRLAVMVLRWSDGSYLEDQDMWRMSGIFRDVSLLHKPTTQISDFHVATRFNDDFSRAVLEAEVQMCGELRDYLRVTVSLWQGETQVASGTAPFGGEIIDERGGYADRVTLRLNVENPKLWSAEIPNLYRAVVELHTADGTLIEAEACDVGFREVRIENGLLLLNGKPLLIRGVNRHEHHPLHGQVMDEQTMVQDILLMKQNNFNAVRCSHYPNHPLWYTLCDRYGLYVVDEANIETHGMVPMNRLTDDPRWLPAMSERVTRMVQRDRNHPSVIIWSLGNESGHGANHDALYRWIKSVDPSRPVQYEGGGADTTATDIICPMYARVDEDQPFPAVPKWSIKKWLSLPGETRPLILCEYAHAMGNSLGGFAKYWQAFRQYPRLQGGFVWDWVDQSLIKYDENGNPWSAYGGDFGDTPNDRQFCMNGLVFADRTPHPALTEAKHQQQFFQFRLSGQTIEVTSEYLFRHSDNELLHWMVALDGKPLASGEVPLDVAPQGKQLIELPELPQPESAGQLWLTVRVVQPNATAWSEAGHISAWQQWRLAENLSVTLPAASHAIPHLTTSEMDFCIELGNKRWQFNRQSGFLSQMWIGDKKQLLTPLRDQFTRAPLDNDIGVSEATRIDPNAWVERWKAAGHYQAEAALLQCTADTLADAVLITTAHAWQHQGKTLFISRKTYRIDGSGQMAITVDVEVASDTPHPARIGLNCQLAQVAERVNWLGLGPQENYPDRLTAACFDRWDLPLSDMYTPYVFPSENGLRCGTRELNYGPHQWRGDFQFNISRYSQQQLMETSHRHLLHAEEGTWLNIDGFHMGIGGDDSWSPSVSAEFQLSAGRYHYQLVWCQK

[5] = inhibitors of PGC1a acetylation in cells, dose response, cell-based, cherry-picked samples (AID 720514); assay type: functional;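 note: potency may reflect raised or lowered acetylation signal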
[6] = LGR2 antagonists, dose response, cell-based, HEK293, CRE-luciferase reporter, cherry pick, set 2 (AID 743343); assay type: functional;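 note: transfected cells were stimulated with diluted bursicon conditioned medium after compound addition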
HeLa = test: Cytotoxicity counterscreen assay for transcriptional activators of heat shock protein 70 (Hsp70). [Related pubchem assays: 1203, 1252 ]; assay type: functional; conditions: Homo sapiens;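 note: cells exposed to compound for 16 hours before readout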
[7] = NIH-3T3 fibroblast cytotoxicity, dose response, cytotoxicity control, cell-based, fluorescence, Alamar Blue, secondary assay (AID 2327); assay type: functional;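 note: NIH-3T3 mouse fibroblasts cultured with fluconazole at 8 µg/mL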
Beta-galactosidase [8] = biological target: T2, Beta-galactosidase; test: PubChem AID 485352; assay type: functional
[9] = A549 cell cytotoxicity, dose response, cytotoxicity control, plate reader, cherry-pick, antagonist series (AID 743412); assay type: functional, cell-based
BJ = test: cytotoxicity toward Ras-transformed BJeLR fibroblasts, dose response, cell-based, alamar blue fluorescence, cherrypicked samples (AID 2631); assay type: functional; conditions: Homo sapiens;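 note: confirmatory dose-response assay in RAS-dependent BJ fibroblasts engineered with TERT, LT and ST, with cytotoxicity read by fluorescence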
[10] = HepG2 cell cytotoxicity, dose response, cytotoxicity control, plate reader, cherry-pick, antagonist series (AID 743416); assay type: functional, cell-based
[11] = HEK293 cell cytotoxicity, dose response, cytotoxicity control, plate reader, cherry-picked samples (AID 743446); assay type: functional, cell-based
Protein RecA = biological target: T3, Protein RecA (Mycobacterium tuberculosis, UniProt P9WHJ3); test: Fluorescence Cell-Free Homogeneous Dose Retest to Identify Inhibitors of RecA-Intein Splicing Activity. [Related pubchem assays (depositor defined):AID2097, AID2223, AID489010, AID492950]; assay type: functional
T3 sequence (P9WHJ3 whole entry): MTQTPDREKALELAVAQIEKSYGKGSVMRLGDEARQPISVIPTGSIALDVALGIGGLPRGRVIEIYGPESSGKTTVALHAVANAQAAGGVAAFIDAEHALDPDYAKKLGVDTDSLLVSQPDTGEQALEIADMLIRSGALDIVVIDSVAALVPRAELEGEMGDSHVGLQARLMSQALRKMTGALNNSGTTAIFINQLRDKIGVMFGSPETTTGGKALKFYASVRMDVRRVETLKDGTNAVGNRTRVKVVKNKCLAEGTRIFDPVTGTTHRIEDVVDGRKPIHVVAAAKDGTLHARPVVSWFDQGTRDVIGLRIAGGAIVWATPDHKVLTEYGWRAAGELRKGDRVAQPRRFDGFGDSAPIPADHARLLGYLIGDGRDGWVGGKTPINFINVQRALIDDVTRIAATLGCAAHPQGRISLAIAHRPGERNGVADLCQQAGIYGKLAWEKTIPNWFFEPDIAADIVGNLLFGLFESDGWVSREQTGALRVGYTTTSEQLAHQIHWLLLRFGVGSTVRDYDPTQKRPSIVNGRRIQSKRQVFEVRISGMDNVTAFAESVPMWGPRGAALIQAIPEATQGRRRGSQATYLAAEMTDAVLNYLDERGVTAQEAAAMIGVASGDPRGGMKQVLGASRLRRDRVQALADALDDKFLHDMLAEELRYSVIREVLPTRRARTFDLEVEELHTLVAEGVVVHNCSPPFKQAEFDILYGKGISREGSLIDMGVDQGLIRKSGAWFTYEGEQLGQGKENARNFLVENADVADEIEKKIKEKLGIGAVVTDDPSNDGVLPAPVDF

[12] = biological target: Sphingosine 1-phosphate receptor 4 (Homo sapiens, UniProt O95977); test: Fluorescence dose response cell-based high throughput screening assay for antagonists of the Sphingosine 1-Phosphate Receptor 4 (S1P4). [Related pubchem assays: 1524 (Confirmation in triplicates.), 1510 (Primary screen.)]; assay type: functional
Sequence of Sphingosine 1-phosphate receptor 4 (O95977 whole entry): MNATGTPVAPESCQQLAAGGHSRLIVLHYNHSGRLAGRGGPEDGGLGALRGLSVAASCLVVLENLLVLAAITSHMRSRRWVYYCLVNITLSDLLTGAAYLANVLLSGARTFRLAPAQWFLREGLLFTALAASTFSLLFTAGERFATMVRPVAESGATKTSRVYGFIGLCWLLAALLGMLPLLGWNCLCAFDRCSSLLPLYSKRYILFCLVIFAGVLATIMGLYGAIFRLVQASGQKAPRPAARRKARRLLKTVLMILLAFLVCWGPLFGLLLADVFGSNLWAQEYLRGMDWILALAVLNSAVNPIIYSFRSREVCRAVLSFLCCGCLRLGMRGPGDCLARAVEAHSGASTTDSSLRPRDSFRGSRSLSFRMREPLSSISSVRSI

[13] = biological target: T4, Replicative DNA helicase DnaB (Mycobacterium tuberculosis, UniProt P9WMR3); test: DnaB intein splicing inhibitors, dose response, biochemical, cell-free fluorescence (AID 449749); assay type: functional
T4 sequence (P9WMR3 whole entry): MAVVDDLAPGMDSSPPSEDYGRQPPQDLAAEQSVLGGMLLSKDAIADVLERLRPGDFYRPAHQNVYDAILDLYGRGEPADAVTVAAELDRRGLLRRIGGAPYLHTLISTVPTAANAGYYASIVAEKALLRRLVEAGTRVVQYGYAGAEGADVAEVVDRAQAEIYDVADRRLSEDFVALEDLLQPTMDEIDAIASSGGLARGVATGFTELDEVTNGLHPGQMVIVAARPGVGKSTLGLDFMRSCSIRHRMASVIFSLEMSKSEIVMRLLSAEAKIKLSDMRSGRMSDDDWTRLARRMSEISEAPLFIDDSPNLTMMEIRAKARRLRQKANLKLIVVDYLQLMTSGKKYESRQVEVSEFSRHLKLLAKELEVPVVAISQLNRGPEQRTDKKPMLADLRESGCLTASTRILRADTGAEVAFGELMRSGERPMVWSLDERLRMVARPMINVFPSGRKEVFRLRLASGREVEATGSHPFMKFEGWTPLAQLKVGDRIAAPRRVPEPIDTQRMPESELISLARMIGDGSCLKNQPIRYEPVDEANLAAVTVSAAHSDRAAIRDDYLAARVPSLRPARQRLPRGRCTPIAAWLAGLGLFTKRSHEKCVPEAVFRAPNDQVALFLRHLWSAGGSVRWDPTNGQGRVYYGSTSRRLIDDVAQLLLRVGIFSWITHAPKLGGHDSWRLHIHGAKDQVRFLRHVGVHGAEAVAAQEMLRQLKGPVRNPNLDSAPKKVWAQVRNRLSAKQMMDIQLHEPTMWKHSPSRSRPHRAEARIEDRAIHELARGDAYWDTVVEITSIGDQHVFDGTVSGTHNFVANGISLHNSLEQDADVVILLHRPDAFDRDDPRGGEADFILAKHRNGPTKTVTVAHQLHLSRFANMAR

[14] = biological target: Heat shock protein HSP 90-alpha (Homo sapiens, UniProt P07900); assay type: functional, organism-based
[15] = biological target: T1, Kappa-type opioid receptor; assay type: functional; remark: listed apart in the source
[16] = biological target: T5, Type-1 angiotensin II receptor (Homo sapiens, UniProt P30556); test: AT1 receptor antagonists, dose response, selectivity assay for APJ receptor antagonist project, cell-based, uHTS hits (AID 463214); assay type: functional;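 note: antagonist potency against angiotensin II stimulated AT1 response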
T5 sequence (P30556 whole entry): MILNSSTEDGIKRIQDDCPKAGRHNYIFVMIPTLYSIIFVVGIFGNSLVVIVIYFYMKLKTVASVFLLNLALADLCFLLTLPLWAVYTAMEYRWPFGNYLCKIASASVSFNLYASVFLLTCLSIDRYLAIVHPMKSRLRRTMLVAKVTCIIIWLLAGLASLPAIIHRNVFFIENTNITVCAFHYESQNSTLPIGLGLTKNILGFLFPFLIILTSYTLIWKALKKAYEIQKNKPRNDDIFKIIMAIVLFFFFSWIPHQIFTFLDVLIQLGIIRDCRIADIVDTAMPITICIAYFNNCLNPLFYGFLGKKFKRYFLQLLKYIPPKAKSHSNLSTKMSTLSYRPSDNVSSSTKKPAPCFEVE

[17] = C. albicans growth with fluconazole, confirmation, fluorescence, retest (AID 2467); assay type: functional, cell-based
Bcl-2-like protein 10 = biological target: T6, Bcl-2-like protein 10 (Homo sapiens, UniProt Q9HD36); test: Biochemical TR3 FP assay of Bcl-B inhibitor potency, EC50 (AID 1243); assay type: functional
T6 sequence (Q9HD36 whole entry): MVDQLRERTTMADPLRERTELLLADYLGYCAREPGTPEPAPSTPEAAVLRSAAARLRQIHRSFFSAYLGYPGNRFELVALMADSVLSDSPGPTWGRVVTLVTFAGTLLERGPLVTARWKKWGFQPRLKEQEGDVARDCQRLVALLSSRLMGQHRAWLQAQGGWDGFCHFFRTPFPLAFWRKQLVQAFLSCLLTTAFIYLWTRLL

CC(C)(C)c1ccc(-n2nc(C#N)c(Cl)cc2=O)cc1
AC50 [1]: 14.4 µM (active)
IC50 [2]: 9.04 µM (active)
IC50 [3]: 3.68 µM (active)
EC50 (Beta-galactosidase [4]): > 31.5 µM (inactive)
AC50 [5]: 2.85 µM (active)
AC50 [6]: 12 µM (active)
CC50 (HeLa): > 3.67 µM (not active)
EC50 [7]: 5.04 µM (inconclusive)
EC50 (Beta-galactosidase [8]): > 40 µM (inactive)
AC50 [9]: 2.83 µM (active)
EC50 (BJ): 1.13 µM (active)
AC50 [10]: 2.81 µM (active)
AC50 [11]: 6.44 µM (active)
EC50 (Protein RecA): 0.989 µM (active)
IC50 [12]: 1.87 µM (active)
AC50 [13]: 0.746 µM (active)
AC50 [14]: 3.8 µM (active)
IC50 [15]: 4.02 µM
IC50 [16]: 38.5 µM (not active)
EC50 [17]: > 38 µM (not active)

Cc1ccc(C)n1-c1ccccc1C(=O)O
EC50 (Bcl-2-like protein 10): 0.62 µM (active)
